The target of assay [1] is T1, enzyme of Corynebacterium striatum Ax 20 (SEQ ID No. 1) (Corynebacterium striatum, UniProt Q8GGD4).
T1 construct: endogenous in cells; host or cells: Corynebacterium striatum Ax 20 (DSM 14267), wild-type cell extract
Briefly: Enzyme inhibition, cellular extract, Nα-lauroyl-L-glutamine cleavage, fluorescamine readout. Type of assay: biochemical, Corynebacterium striatum Ax 20 (DSM 14267). The conditions noted are these: substrate Nα-lauroyl-L-glutamine 50 μM, 10 min preincubation at 37° C., 15 min incubation, pH 7. On the procedure: Cellular Extracts of Corynebacterium striatum Ax 20 (DSM 14267) are prepared by mechanical disruption and subsequent centrifugation.
The extract (50 μl ml corresponding to 0.2 ml initial cell culture) is added to 50 μl of Buffer A (Phosphate Buffer, pH 7). Various concentrations of the compounds of the present invention are added in a volume of 40 μl, and after 10 min preincubation at 37° C., the reaction is and amended with 10 μl of substrate (Nα-lauroyl-L-glutamine, final concentration 50 μM). The samples are incubated for 15 min and then the reaction is stopped by adding 75 μl of Fluorescamine (2.5 mM dissolved in Acetonitrile). The fluorescence resulting from derivatization of the released glutamine with fluorescamine is determined at an excitation wavelength of 381 nm and an emission wavelength of 470 nm.
By comparing the samples containing compounds of the present invention with control samples with enzyme and substrate only, the inhibition (%) is calculated. Alternatively, the same assay is made with a recombinantly formed enzyme produced with a strain containing an expression vector comprising a nucleic acid sequence encoding for the enzyme.

For the next assay, the system named is Corynebacterium Ax20. Briefly: Inhibition of the enzymatic activity in living cells, release of lauric acid by GC. Format: cell-based, Corynebacterium striatum Ax 20. The following applies: 0.2 μM compound, stationary phase living cells, substrate Nα-lauroyl-L-glutamine 1 mM, 1 h. How it is done:
The uptake of the compounds in bacterial cells and the inhibition of the enzyme contained therein may be measured using an assay based on stationary-phase living cells. Thus, cells may be incubated along with inhibitory compound or compounds, and the substrate (i.e. the material found in sweat, which when cleaved by the enzyme forms the malodorous acids), and the release of acids may be measured at various inhibitor concentrations. By comparing IC50 values obtained with the living cells with the IC50 values obtained with the isolated enzyme, the ease of penetration of the compounds into the bacterial cells can be assessed.
In order to evaluate enzyme activity in intact cells, stationary phase living cells of Ax20 are harvested and resuspended in Buffer A to an optical density at 600 nm of 0.25. Inhibitory compounds are added at various concentrations, and after a preincubation of 15 min, the substrate (Nα-lauroyl-L-glutamine, 1 mM final concentration) is added. The samples are incubated for 1 h and then extracted with MTBE and HCl and analysed for released lauric acid using capillary GC. By comparing the samples containing compounds of the present invention with control samples with bacteria and substrate only, the inhibition (%) is calculated. By comparing the inhibitory capacity of the compounds on the isolated enzyme with the values obtained using intact cells, the relative uptake of the compounds by the cells can be assessed. From Table 2 it appears, that compounds of the present invention can cross the bacterial cell wall and cytoplasmatic membrane, and thus can have inhibitory activity in living cells.

T1 sequence (Q8GGD4 2-400): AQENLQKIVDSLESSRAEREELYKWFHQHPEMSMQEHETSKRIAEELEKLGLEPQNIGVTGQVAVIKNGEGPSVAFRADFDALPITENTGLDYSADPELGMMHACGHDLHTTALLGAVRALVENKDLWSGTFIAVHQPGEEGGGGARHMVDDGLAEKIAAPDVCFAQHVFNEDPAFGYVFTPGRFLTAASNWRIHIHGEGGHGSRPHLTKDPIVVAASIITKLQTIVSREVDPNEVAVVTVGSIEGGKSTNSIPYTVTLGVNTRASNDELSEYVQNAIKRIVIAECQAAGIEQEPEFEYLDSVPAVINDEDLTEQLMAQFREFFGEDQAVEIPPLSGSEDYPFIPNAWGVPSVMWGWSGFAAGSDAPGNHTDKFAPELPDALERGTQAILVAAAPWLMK

With “4-Carbamoyl-2-[hydroxy-(3-phenyl-propyl)-phosphinoylmethyl]-butyric acid [Compound 5t]”, the 50% inhibitory concentration (IC50) (in general, the concentration at which inhibition is half-maximal) in assay [1] is 125 nM.
`CC(C)CCCC(C)CCP(=O)(O)CC(CCC(N)=O)C(=O)O` (stereo not drawn) [Compound 5n, 4-Carbamoyl-2-[(3,7-dimethyl-octyl)-hydroxy-phosphinoylmethyl]-butyric acid] displayed an IC50 in assay [1] of 9 nM. Further, the “% inhibition of release of fatty acids by Corynebacterium Ax20 at a concentration of 0.2 μM” value in the assay with Corynebacterium Ax20 is given as 69.5%.
The corresponding values for `CCCCCCCCCCP(=O)(O)CC(CCC(N)=O)C(=O)O` (stereo not drawn) [Compound 5a, 4-Carbamoyl-2-(decyl-hydroxy-phosphinoylmethyl)-butyric acid] are 30.3 nM and 60.9%.
“4-Carbamoyl-2-[hydroxy-(4-isopropyl-cyclohex-1-enylmethyl)-phosphinoylmethyl]-butyric acid [Compound 5z]” showed an IC50 in assay [1] of 32 nM.
In assay [1], “4-Carbamoyl-2-(hydroxy-naphthalen-2-ylmethyl-phosphinoylmethyl)-butyric acid [Compound 5g]” returned a half-inhibitory concentration (IC50) of 138 nM.
Turning to “4-Carbamoyl-2-[hydroxy-(4-phenyl-butyl)-phosphinoylmethyl]-butyric acid [Compound 5x]”, the midpoint of inhibition in assay [1], the IC50, lay at 40 nM.
For `CCCCCCCCP(=O)(O)CC(CCC(N)=O)C(=O)O` (stereo not drawn) [Compound 5y, 4-Carbamoyl-2-(hydroxy-octyl-phosphinoylmethyl)-butyric acid], it took 17.9 nM to reach half-maximal inhibition in assay [1] (IC50). The “% inhibition of release of fatty acids by Corynebacterium Ax20 at a concentration of 0.2 μM” value with Corynebacterium Ax20 amounted to 64.9%.
The corresponding values for `CC(CCc1ccccc1)CCP(=O)(O)CC(CCC(N)=O)C(=O)O` (stereo not drawn) [Compound 5c, 4-Carbamoyl-2-[hydroxy-(3-methyl-5-phenyl-pentyl)-phosphinoylmethyl]-butyric acid] are 11.5 nM and 70.5%.

The values above are taken from patent publication US7402576B2, “Phosphinic acid analogs of glutamate” (Givaudan SA, priority 2002, dated 2008).
